Assay results published in US10136645B2, “Antimicrobial composition” (MicroBio Solutions Inc., priority 2015, dated 2018).

Experiments:
[1] = system: E. coli on raw chicken piece; test: Efficacy and residual growth inhibition on inoculated raw chicken pieces; assay type: cell-based
From the text: In the following example it is shown the residual effect of a combination of LAE/H2O2 compared with peracetic acid (PAA). The peracetic acid is often used in the food industry to sanitize food (fruit, vegetables, meat and poultry). The peracetic acid has a strong odor, is highly reactive and unstable when diluted and its use is limited to 80 ppm on food in the majority of countries worldwide regulation (e.g. US-FDA regulation 21CFR). For this example a solution of 200 ppm of lauric arginate with 1000 ppm of hydrogen peroxide is prepared and acidified to pH 2.5 using citric acid. The peracetic acid used is provided by Sigma-Aldrich.
Raw chicken pieces of the same size and weight are first soaked in an inoculating solution containing E. coli and incubated 30 minutes at 30° C. to allow the adhesion of bacteria on the surfaces of the sample. All samples are then soaked in a disinfectant solution (LAE/H2O2 or PAA) or a control (water) for a period of 30 seconds followed by a drying period drip for 2 minutes. Three replicates were completed per treatment. After the treatment, the samples were submerged in a neutralizing growth medium (D/E Neutralizing Broth) to analyze the populations of E. coli after the treatment or stored at room temperature in a sterile bags 24 hours before analyzed for populations of E. coli.

E. coli [2] = test: Minimal bactericidal time (MBT) at different contact times; assay type: cell-based; settings: 1000 active ppm H2O2 alone
Procedure: (§1) The antimicrobial effectiveness of the compositions of the present invention was tested. In this experiment, the test organism was E. coli and the final bacterial concentrations was 10^6 to 10^7 cfu/ml. Inoculum was contacted with either the combinations of LAE/H2O2 or individual, at different active concentration levels for a contact time of 30 seconds or more. The aliquots of this contaminated solution is used for determinate the minimal bactericidal concentration (MBC) for kill bacteria in the aliquots at 30 sec. contact time. Table 1 summarizes the efficacy of each biocide and their blends, and the Synergy index of each combination. In the same condition the minimal bactericidal time (MBT) was also evaluate with a combination of LAE:H2O2 (1:10) at different contact time. The table 2 summarizes the minimal bactericidal time for each biocide and a blend.

B. subtilis spore = test: Spore germination inhibition in TSB with low concentration solution; assay type: cell-based, Bacillus subtilis; settings: low concentration solution (1:200 dilution); 30° C., 72 hours, visible growth
Procedure: The spore contaminated media culture was then incubated at 30° C. for 72 hours for detect the germination of the spore by the presence of a visually detectable growth. Three replicates were completed per treatment.

[3] = system: Bacillus subtilis (ATCC#19659) spores; test: Sporicidal activity, quantitative suspension test EN 13704:2002; assay type: cell-based
Procedure: The sporicidal activity of a given product is defined by its capacity to reduce at least by 3 log (cfu/ml) the amount of Bacillus subtilis bacterial spores in suspension, in the conditions established in the method.
The test organism in the form of a test suspension was prepared containing endospores from Bacillus subtilis (ATCC#19659). The endospores were specifically prepared from a culture grown on Nutrient agar, to which additional sporulation enhancements were added. Plates were harvested with sterile water and endospores were purified by repeated centrifugations and resuspensions in water. The final wash was in 70% w/w ethanol for 30 minutes, to ensure the death of all vegetative bacteria.

[4] = animal toxicological studies; cited from earlier work
E. coli [5] = test: Minimal bactericidal concentration (MBC) at 30 sec. contact time; assay type: cell-based; settings: alone or in blend, 10^6 to 10^7 cfu/ml
Procedure: as §1

In the case of CC(=O)OO [PAA, peracetic acid], the “Average Log10 cfu/sample 2 min. after treatment” value ([1]; 30 seconds soak, 2 min drip drying, LAE/H2O2 200/1000 ppm pH 2.5) is reported as 0.56 Log10 cfu/sample, the “Log10 reduction vs control 2 min. after treatment” value ([1]; 30 seconds soak, LAE/H2O2 200/1000 ppm pH 2.5, PAA 80 ppm) is reported as 3.81 Log10 and the “Average Log10 cfu/sample 24 hours after treatment” value ([1]; stored 24 hours at room temperature, LAE/H2O2 200/1000 ppm, PAA 80 ppm) is reported as 2.51 Log10 cfu/sample.
With OO [Example H2O2, hydrogen peroxide] the MBT (E. coli [2]) was >5 min, the “Spore germination inhibition activity” value (B. subtilis spore) was “No inhibition” and the “Average Log 10 cfu/ml reduction after 10 minutes contact time” value ([3]; high concentration treatment solution (10% H2O2)) was >3 Log 10 cfu/ml.
For CCCCCCCCCCCC(=O)N[C@@H](CCCN=C(N)N)C(=O)OCC [LAE, Lauric arginate ethyl ester], the “systemic No Observable Adverse Effect Levels (NOAEL)” value [4] is given as 15,000 mg/L, the “MBC (active ppm) H2O2” value (E. coli [5]; H2O2 concentration for complete kill) is given as 5000 active ppm and the “MBC (active ppm) LAE” value (E. coli [5]; LAE concentration for complete kill) is given as >350 active ppm. For the same molecule, the sporicidal activity ([3]; LAE alone, result not shown) was “no significant difference with the control”.
